Tested on: mouse bone marrow mesenchymal stem cell line (MSC-1 cells), PDGFRα-positive
Assay: Migration assay (Boyden / 48-well chemotaxis chamber) on bone marrow mesenchymal stem cell line MSC-1
Assay type: cell-based
Conditions: for activity of promoting the migration of MSC-1: peptides produced using HEK293, concentration not stated; for migration-promoting activity: synthetic peptides
Method: Cells of a mouse bone marrow mesenchymal stem cell line (MSC-1 cells, established by Tamai et al. of Osaka University (PDGFRα-positive cells in bone marrow are mobilized by high mobility group box 1 (HMGB1) to regenerate injured epithelia. (Tamai et al., Proc Natl Acad Sci USA. Apr. 4, 2011))) were detached from dishes using trypsin, and collected by centrifugation at 1200 rpm and 4° C. for 10 minutes. The resulting pellet was loosened and suspended at a cell concentration of 2.0×10^6 to 3.0×10^6 cells/ml by adding Dulbecco's Modified Eagle Medium (D-MEM) containing 10% fetal bovine serum (FBS). The recombinant protein and peptides produced in HEK293 were diluted with D-MEM containing 10% FBS. The negative control used was phosphate buffered saline (PBS). An acrylic Boyden chamber was used; cells of the mouse bone marrow mesenchymal stem cell line prepared at a cell concentration of 3×10^6 cells/ml were placed in its upper layer, while a diluted protein or peptide is added to the bottom layer. More specifically, a 28 μl aliquot of a protein or peptide solution was added to each well of the bottom plate of a 48-well chemotaxis chamber (NEURO PROBE 48WELL CHEMOTAXIS CHAMBER), and a polycarbonate membrane with 8 μm pores (Neuro Probe, Inc, Cat: 866-417-0014) was placed on the bottom plate. Then, an upper plate was placed on the membrane and screwed tightly. 50 μl of cells of the mouse bone marrow mesenchymal stem cell line after concentration adjustment were added to the upper plate wells. The chamber was placed in an incubator under 5% CO2 at 37° C. After four hours, the membrane was removed from the chamber and stained with Diff-Quik (Sysmex, Cat: 16920) to detect cells that migrated through membrane pores to the lower compartment.
The peptides listed below were custom synthesized using the solid phase method by Medical & Biological Laboratories (MBL). The peptides were synthesized based on the mouse HMGB1 sequence (SEQ ID NO: 3). Synthetic peptides described in subsequent Examples were also prepared based on the mouse HMGB1 sequence. • A synthetic peptide consisting of the amino acid sequence from positions 1 to 10 of HMGB1 (1-10); • a synthetic peptide consisting of the amino acid sequence from positions 1 to 34 of HMGB1 (1-34); • a synthetic peptide consisting of the amino acid sequence from positions 37 to 62 of HMGB1 (37-62); • a synthetic peptide consisting of the amino acid sequence from positions 27 to 62 of HMGB1 (27-62); • a synthetic peptide consisting of the amino acid sequence from positions 56 to 72 of HMGB1 (56-72); • a synthetic peptide consisting of the amino acid sequence from positions 11 to 20 of HMGB1 (11-20); • a synthetic peptide consisting of the amino acid sequence from positions 11 to 25 of HMGB1 (11-25); • a synthetic peptide consisting of the amino acid sequence from positions 11 to 30 of HMGB1 (11-30); • a synthetic peptide consisting of the amino acid sequence from positions 11 to 34 of HMGB1 (11-34); • a synthetic peptide consisting of the amino acid sequence from positions 11 to 44 of HMGB1 (11-44); • a synthetic peptide consisting of the amino acid sequence from positions 17 to 44 of HMGB1 (17-44); • a synthetic peptide consisting of the amino acid sequence from positions 1 to 25 of HMGB1 (1-25); and the whole mouse HMGB1 produced in HEK293 (1-215(HEK)) as a positive control were adjusted to 100 μg/ml and placed in the lower layer of a chemotaxis chamber to assess the migration-promoting activity on bone marrow mesenchymal stem cell line (MSC-1). Results
As positive controls, centrifuged supernatant of the skin of a one-day-old mouse (one individual) incubated in PBS at 4° C. for 12 hours, and the whole mouse HMGB1 (HMGB1(HEK_1-215)) produced in HEK293 were used. […]

[1] = 100 μg/ml, positive control 1-215(HEK), FIG. 7

Substance | activity of promoting the migration of MSC-1 | migration-promoting activity (5 μM, FIGS. 8A and 8B) | further results
1-42: peptide comprising the amino acid sequence of positions 1 to 42, produced using HEK293 (MGKGDPKKPRGKMSSYAFFVQTCREEHKKKHPDASVNFSEFS; UniProt P63158 1-42, looked up, fragment) | showed the activity of promoting the migration of bone marrow mesenchymal stem line MSC-1 | – | –
1-43: peptide comprising the amino acid sequence of positions 1 to 43, produced using HEK293 (MGKGDPKKPRGKMSSYAFFVQTCREEHKKKHPDASVNFSEFSK; UniProt P09429 1-43, looked up, fragment) | showed the activity of promoting the migration of bone marrow mesenchymal stem line MSC-1 | – | –
1-45: peptide comprising the amino acid sequence of positions 1 to 45, produced using HEK293 (MGKGDPKKPRGKMSSYAFFVQTCREEHKKKHPDASVNFSEFSKKC; UniProt P63158 1-45, looked up, fragment) | showed the activity of promoting the migration of bone marrow mesenchymal stem line MSC-1 | – | –
1-46: peptide comprising the amino acid sequence of positions 1 to 46, produced using HEK293 (MGKGDPKKPRGKMSSYAFFVQTCREEHKKKHPDASVNFSEFSKKCS; UniProt P63158 1-46, looked up, fragment) | showed the activity of promoting the migration of bone marrow mesenchymal stem line MSC-1 | – | –
1-47: peptide comprising the amino acid sequence of positions 1 to 47, produced using HEK293 (MGKGDPKKPRGKMSSYAFFVQTCREEHKKKHPDASVNFSEFSKKCSE; UniProt P63158 1-47, looked up, fragment) | showed the activity of promoting the migration of bone marrow mesenchymal stem line MSC-1 | – | –
1-48: peptide comprising the amino acid sequence of positions 1 to 48, produced using HEK293 (MGKGDPKKPRGKMSSYAFFVQTCREEHKKKHPDASVNFSEFSKKCSER; UniProt P09429 1-48, looked up, fragment) | showed the activity of promoting the migration of bone marrow mesenchymal stem line MSC-1 | – | –
1-49: peptide comprising the amino acid sequence of positions 1 to 49, produced using HEK293 (MGKGDPKKPRGKMSSYAFFVQTCREEHKKKHPDASVNFSEFSKKCSERW; UniProt P09429 1-49, looked up, fragment) | showed the activity of promoting the migration of bone marrow mesenchymal stem line MSC-1 | – | –
1-50: peptide comprising the amino acid sequence of positions 1 to 50, produced using HEK293 (MGKGDPKKPRGKMSSYAFFVQTCREEHKKKHPDASVNFSEFSKKCSERWK; UniProt P63158 1-50, looked up, fragment) | showed the activity of promoting the migration of bone marrow mesenchymal stem line MSC-1 | – | –
1-51: peptide comprising the amino acid sequence of positions 1 to 51, produced using HEK293 (MGKGDPKKPRGKMSSYAFFVQTCREEHKKKHPDASVNFSEFSKKCSERWKT; UniProt P09429 1-51, looked up, fragment) | showed the activity of promoting the migration of bone marrow mesenchymal stem line MSC-1 | – | –
1-52: peptide comprising the amino acid sequence of positions 1 to 52, produced using HEK293 (MGKGDPKKPRGKMSSYAFFVQTCREEHKKKHPDASVNFSEFSKKCSERWKTM; UniProt P09429 1-52, looked up, fragment) | showed the activity of promoting the migration of bone marrow mesenchymal stem line MSC-1 | – | –
(1-25): synthetic peptide consisting of the amino acid sequence from positions 1 to 25 of HMGB1 (MGKGDPKKPRGKMSSYAFFVQTCRE; UniProt P09429 1-25, looked up, fragment) | – | – | migration-promoting activity [1]: found to have the activity
(10-25): synthetic peptide consisting of the amino acid sequence from positions 10 to 25 of HMGB1 (RGKMSSYAFFVQTCRE; UniProt P09429 10-25, looked up, fragment) | – | strong migration-promoting activity | –
(11-25): synthetic peptide consisting of the amino acid sequence from positions 11 to 25 of HMGB1 (GKMSSYAFFVQTCRE; UniProt P09429 11-25, looked up, fragment) | – | weak activity | migration-promoting activity [1]: found to have the activity
(11-27): synthetic peptide consisting of the amino acid sequence from positions 11 to 27 of HMGB1 (GKMSSYAFFVQTCREEH; UniProt P09429 11-27, looked up, fragment) | – | strong migration-promoting activity | –
(11-28): synthetic peptide consisting of the amino acid sequence from positions 11 to 28 of HMGB1 (GKMSSYAFFVQTCREEHK; UniProt P09429 11-28, looked up, fragment) | – | strong migration-promoting activity | –
(11-29): synthetic peptide consisting of the amino acid sequence from positions 11 to 29 of HMGB1 (GKMSSYAFFVQTCREEHKK; UniProt P09429 11-29, looked up, fragment) | – | strong migration-promoting activity | –
(11-30): synthetic peptide consisting of the amino acid sequence from positions 11 to 30 of HMGB1 (GKMSSYAFFVQTCREEHKKK; UniProt P09429 11-30, looked up, fragment) | – | – | migration-promoting activity [1]: activity comparable to or higher than that of the positive control
(11-34): synthetic peptide consisting of the amino acid sequence from positions 11 to 34 of HMGB1 (GKMSSYAFFVQTCREEHKKKHPDA; UniProt P09429 11-34, looked up, fragment) | – | – | migration-promoting activity [1]: activity comparable to or higher than that of the positive control
(11-44): synthetic peptide consisting of the amino acid sequence from positions 11 to 44 of HMGB1 (GKMSSYAFFVQTCREEHKKKHPDASVNFSEFSKK; UniProt P09429 11-44, looked up, fragment) | – | – | migration-promoting activity [1]: activity comparable to or higher than that of the positive control
(12-25): synthetic peptide consisting of the amino acid sequence from positions 12 to 25 of HMGB1 (KMSSYAFFVQTCRE; UniProt P09429 12-25, looked up, fragment) | – | weak activity | –
(12-30): synthetic peptide consisting of the amino acid sequence from positions 12 to 30 of HMGB1 (KMSSYAFFVQTCREEHKKK; UniProt P09429 12-30, looked up, fragment) | – | strong migration-promoting activity | –

— patent publication US10550165B2, “Peptide for inducing regeneration of tissue and use thereof” (STEMRIM INC., priority 2011, dated 2020)
